Results taken from ChEMBL document CHEMBL5390256, “Sticklac-Derived Natural Compounds Inhibiting RNase H Activity of HIV-1 Reverse Transcriptase” (J Nat Prod, 2023).
Activity calls are given as the source filed them. The calls are words filed in the database; no cut-off is given here.

Legend:
[1] = target: T1, Human immunodeficiency virus type 1 reverse transcriptase (Human immunodeficiency virus 1, UniProt Q72547); test: Inhibition of HIV-1 RNase H activity
[2] = target: T1, Human immunodeficiency virus type 1 reverse transcriptase; test: Inhibition of HIV-1 RNase H using 5'-GAUCUGAGCCUGGGAGCU-3'-FAM RNA/BHQ-5'-AGCTCCCAGGCTCAGATC-3' DNA as substrate measured after 60 mins by FRET analysis
[3] = target: Human immunodeficiency virus type 1 reverse transcriptase (Human immunodeficiency virus 1) (UniProt Q72547); test: Inhibition of HIV-1 RNase H using 5'-GAUCUGAGCCUGGGAGCU-3'-FAM RNA/BHQ-5'-AGCTCCCAGGCTCAGATC-3' DNA as substrate at 50 uM measured after 60 mins by FRET analysis
[4] = Cytotoxicity activity against human R5-MaRBLE reporter cells assessed as effect on Renilla luciferase activity measured after 7 days by Dual-Glo luciferase reporter assay; type: toxicity, cell-based; conditions: time 7 day
[5] = test system: Human immunodeficiency virus 1; test: Antiviral activity against HIV-1 NL4-3 infected in human R5-MaRBLE reporter cells assessed as inhibition of viral replication measured after 7 days by Dual-Glo luciferase reporter assay; type: functional, organism-based
[6] = target: DNA (cytosine-5)-methyltransferase 1 (Homo sapiens, UniProt P26358); test: Competitive inhibition of DNMT1 (unknown origin)
Sequence of DNA (cytosine-5)-methyltransferase 1 (P26358 whole entry): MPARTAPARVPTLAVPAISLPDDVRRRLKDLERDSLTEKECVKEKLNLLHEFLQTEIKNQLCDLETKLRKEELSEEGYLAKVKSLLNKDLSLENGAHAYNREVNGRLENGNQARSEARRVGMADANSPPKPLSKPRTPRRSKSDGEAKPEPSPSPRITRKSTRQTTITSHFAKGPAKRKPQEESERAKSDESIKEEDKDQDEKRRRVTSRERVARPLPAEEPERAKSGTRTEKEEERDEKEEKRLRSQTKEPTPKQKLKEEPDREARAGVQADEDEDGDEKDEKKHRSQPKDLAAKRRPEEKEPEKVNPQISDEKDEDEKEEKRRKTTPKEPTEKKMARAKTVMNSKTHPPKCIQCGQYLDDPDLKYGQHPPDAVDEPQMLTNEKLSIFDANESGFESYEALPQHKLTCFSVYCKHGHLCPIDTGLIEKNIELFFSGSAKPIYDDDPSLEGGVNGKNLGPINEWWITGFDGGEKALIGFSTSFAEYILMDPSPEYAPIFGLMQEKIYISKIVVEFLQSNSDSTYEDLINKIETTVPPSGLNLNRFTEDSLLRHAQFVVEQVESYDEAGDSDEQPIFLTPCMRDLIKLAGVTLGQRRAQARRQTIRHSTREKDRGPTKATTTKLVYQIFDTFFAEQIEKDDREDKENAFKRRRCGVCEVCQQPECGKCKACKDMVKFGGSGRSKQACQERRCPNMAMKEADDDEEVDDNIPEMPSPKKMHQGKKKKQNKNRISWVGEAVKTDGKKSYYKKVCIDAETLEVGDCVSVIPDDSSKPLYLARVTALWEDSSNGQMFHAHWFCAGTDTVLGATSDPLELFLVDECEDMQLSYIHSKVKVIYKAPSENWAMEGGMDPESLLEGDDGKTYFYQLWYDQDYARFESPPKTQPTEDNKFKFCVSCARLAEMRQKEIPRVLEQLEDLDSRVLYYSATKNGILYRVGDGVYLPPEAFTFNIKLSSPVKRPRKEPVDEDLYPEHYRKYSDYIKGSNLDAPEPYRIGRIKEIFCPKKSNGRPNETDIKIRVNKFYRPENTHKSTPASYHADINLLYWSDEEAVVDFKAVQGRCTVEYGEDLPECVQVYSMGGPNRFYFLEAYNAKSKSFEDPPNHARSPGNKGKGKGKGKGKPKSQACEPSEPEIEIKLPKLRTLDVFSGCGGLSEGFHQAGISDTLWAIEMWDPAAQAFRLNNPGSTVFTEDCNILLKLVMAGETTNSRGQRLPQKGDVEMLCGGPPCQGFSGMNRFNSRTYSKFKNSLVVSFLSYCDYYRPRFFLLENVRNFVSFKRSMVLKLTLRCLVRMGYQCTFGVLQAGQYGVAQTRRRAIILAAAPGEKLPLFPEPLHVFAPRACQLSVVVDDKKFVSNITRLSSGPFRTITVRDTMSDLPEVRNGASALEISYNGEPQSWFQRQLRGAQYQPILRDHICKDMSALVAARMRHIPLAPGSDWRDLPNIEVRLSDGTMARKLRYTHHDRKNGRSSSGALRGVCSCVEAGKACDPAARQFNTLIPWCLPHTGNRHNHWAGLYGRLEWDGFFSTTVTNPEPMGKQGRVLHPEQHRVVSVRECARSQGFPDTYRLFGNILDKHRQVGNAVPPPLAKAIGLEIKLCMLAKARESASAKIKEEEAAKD

SMILES | IC50 [1] | IC50 [2] | inhibition [3] | CC50 at 168 h [4] | EC50 ([5]; Human immunodeficiency virus 1, NL4-3, R5-MaRBLE, 168 h, read-out: EC50) | Ki [6] | EC50 ([5]; r5-marble)
O=C(O)c1cc(O)c2c(c1)[C@@H]([C@H]1c3cc(C(=O)O)cc(O)c3C(=O)c3c(O[C@H]4O[C@@H](CO)[C@H](O)[C@@H](O)[C@@H]4O)cccc31)c1cccc(O[C@@H]3O[C@H](CO)[C@@H](O)[C@H](O)[C@H]3O)c1C2=O | 2 µM |  |  |  |  |  | 
O=C(O)c1cc(O)c2c(c1)[C@@H]([C@@H]1c3cc(C(=O)O)cc(O)c3C(=O)c3c(O[C@@H]4O[C@H](CO)[C@@H](O)[C@H](O)[C@H]4O)cccc31)c1cccc(O[C@H]3O[C@@H](CO)[C@H](O)[C@@H](O)[C@@H]3O)c1C2=O | 2 µM |  |  |  |  |  | 
NCCc1ccc(O)c(-c2c(O)c(O)c3c(c2O)C(=O)c2c(cc(O)c(C(=O)O)c2C(=O)O)C3=O)c1 |  | 44 µM | Active |  |  |  | 
N[C@@H](Cc1ccc(O)c(-c2c(O)c(O)c3c(c2O)C(=O)c2c(cc(O)c(C(=O)O)c2C(=O)O)C3=O)c1)C(=O)O |  | 8.1 µM | Active | 43.9 µM | 19.2 µM |  | 
CC(=O)NCCc1ccc(O)c(-c2c(O)c(O)c3c(c2O)C(=O)c2c(cc(O)c(C(=O)O)c2C(=O)O)C3=O)c1 [LACCACID ACID A] |  | 64 µM | Active | 39.5 µM |  | 0.3 µM | Not Active
